pEC50: −log10 of the molar value.
Columns and labels:
[1] = test system: patients with myotonic dystrophy (type 1); conditions: 150 tid or 200 mg tid, 7 weeks; cited from earlier work
ADR mouse = assay: Anti-myotonic effects in the ADR mouse (righting response); format: in vivo; conditions: oral 5 mg/kg
Description: The effects of oral administration of either mexiletine glutamic acid amide at 5, 10 or 20 mg/kg or mexiletine 5 mg/kg on the righting response of a group of three adr/adr mice were examined on three separate days. Each assessment involved placing the individual mice on their back no fewer than seven successive occasions in rapid succession and determining the time to successful righting at various time pre and post dosing (−10, +15, +30, +60, +120 & +180 mins).

[2] = test system: rabbit stomach smooth muscle; assay: Electrical field stimulated contractions of isolated rabbit stomach smooth muscle; format: cell-based; conditions: Oryctolagus cuniculus, read-out: ED50 for attenuation of EFS induced contractions
[3] = test system: patients with myotonic disorders; conditions: 1200 mg daily tocamide or 600 mg daily mexiletine, three divided doses; cited from earlier work
[4] = test system: 9-AC induced myotonia in the rat; assay: Anti-myotonic effects in 9-anthracene carboxylic acid (9-AC) treated rats (righting time); format: in vivo; conditions: for Mean ± SEM righting response time: 9-AC 30 mg/kg ip
Description: The use of ip injection of 9-anthracene carboxylic acid is known to induce a myotonic state in rats which can then be used to assess the activity of potential anti-myotonic compounds (Villegas-NavarroA et al (1992) Exp. Toxicol. Pathol. 44 34-39).
Groups of four rats were predosed with 30 mg/kg 9-AC (time 0) and ten minutes later their righting time was assessed repeatedly seven times in rapid succession. They were then dosed po with mexiletine or mexiletine glutamic acid amide at 1, 5, 10, 20 or 40 mg/kg and the righting time reassessed at ˜30, 60, 120 and 180 minutes after 9-AC injection. At each dose level, a group of four control animals, given vehicle alone, was used

patients = conditions: cited from earlier work
sodium channel = conditions: relative to mexiletine; cited from earlier work

For `Cc1cccc(C)c1OCC(C)N.Cl` (racemic) [Mexiletine hydrochloride, (rac)-1-(2,6-dimethylphenoxy)-2-propanamine hydrochloride], the “Reduction in grip relaxation time” value [1] is given as 2 fold, the “Effects on righting time” value (ADR mouse) is given as “marginal” and the “Mean ± SEM righting response time” value (ADR mouse; +15 mins) is given as 7.80 ± 3.72 s. The “Mean ± SEM righting response time” value (ADR mouse; +30 mins) was 9.53 ± 5.07 s, the “Mean ± SEM righting response time” value (ADR mouse; +60 mins) was 10.5 ± 3.68 s and the “Mean ± SEM righting response time” value (ADR mouse; +120 mins) was 12.5 ± 4.98 s. The “Mean ± SEM righting response time” value (ADR mouse; +180 mins) was 12.5 ± 4.27 s, the “Mean ± SEM righting response time” value (ADR mouse; −10 mins (pre dosing)) was 7.94 ± 1.25 s and the pEC50 [2] was 5.66. For the same compound, the “Increase in the speed of stair step movement” value [3] was 2.8 fold, the “Reduction in the time taken for eye opening” value [3] was 6 fold and the “Reduction of hand opening time” value [3] was 6.9 fold. The “Coefficient of variation of the response” value ([4]; 10 mg/kg (same molar dose level), time of maximal effect of 9-AC (+30 mins)) was 96%, the “Mean ± SEM righting response time” value ([4]; drug 1 mg/kg po, 9-AC +10 mins (predrug)) was 1.96 ± 0.193 s and the “Mean ± SEM righting response time” value ([4]; drug 1 mg/kg po, 9-AC +30 mins) was 2.94 ± 0.490 s. The “Mean ± SEM righting response time” value ([4]; drug 1 mg/kg po, 9-AC +60 mins) was 1.73 ± 0.165 s, the “Mean ± SEM righting response time” value ([4]; drug 1 mg/kg po, 9-AC +120 mins) was 1.17 ± 0.124 s and the “Mean ± SEM righting response time” value ([4]; drug 1 mg/kg po, 9-AC +180 mins) was 0.831 ± 0.169 s. For the same compound, the “Mean ± SEM righting response time” value ([4]; drug 5 mg/kg po, 9-AC +10 mins (predrug)) was 2.36 ± 0.208 s, the “Mean ± SEM righting response time” value ([4]; drug 5 mg/kg po, 9-AC +30 mins) was 2.21 ± 0.153 s and the “Mean ± SEM righting response time” value ([4]; drug 5 mg/kg po, 9-AC +60 mins) was 2.34 ± 0.386 s. For the same compound, the “Mean ± SEM righting response time” value ([4]; drug 5 mg/kg po, 9-AC +120 mins) was 1.33 ± 0.194 s, the “Mean ± SEM righting response time” value ([4]; drug 5 mg/kg po, 9-AC +180 mins) was 0.980 ± 0.220 s and the “Mean ± SEM righting response time” value ([4]; drug 10 mg/kg po, 9-AC +10 mins (predrug)) was 2.26 ± 0.195 s. For the same compound, the “Mean ± SEM righting response time” value ([4]; drug 10 mg/kg po, 9-AC +30 mins) was 3.28 ± 1.58 s, the “Mean ± SEM righting response time” value ([4]; drug 10 mg/kg po, 9-AC +60 mins) was 2.28 ± 0.347 s and the “Mean ± SEM righting response time” value ([4]; drug 10 mg/kg po, 9-AC +120 mins) was 1.41 ± 0.190 s. For the same compound, the “Mean ± SEM righting response time” value ([4]; drug 20 mg/kg po, 9-AC +10 mins (predrug)) was 2.27 ± 0.260 s, the “Mean ± SEM righting response time” value ([4]; drug 20 mg/kg po, 9-AC +60 mins) was 1.43 ± 0.294 s and the “Mean ± SEM righting response time” value ([4]; drug 20 mg/kg po, 9-AC +120 mins) was 0.949 ± 0.131 s. The “Mean ± SEM righting response time” value ([4]; drug 40 mg/kg po, 9-AC +10 mins (predrug)) was 2.61 ± 0.088 s, the “Mean ± SEM righting response time” value ([4]; drug 40 mg/kg po, 9-AC +60 mins) was 0.913 ± 0.0507 s and the “Mean ± SEM righting response time” value ([4]; drug 40 mg/kg po, 9-AC +120 mins) was 0.746 ± 0.0699 s. The “Mean ± SEM righting response time” value ([4]; drug 40 mg/kg po, 9-AC +180 mins) was 0.583 ± 0.0606 s.
For `CNCC[C@H](Oc1cccc2ccccc12)c1cccs1` [Duloxetine, duloxetine], the “Treated patients with nausea” value (patients; treated patients) is listed as 20-40%.
In the case of `Cc1cc(O)cc(C)c1OCC(C)N` (stereo not shown) [Para-hydroxymexiletine], the “Sodium channel inhibitory activity retained relative to the parent molecule” value (sodium channel) is given as “around 25%”.
In the case of `CC(C)C[C@H](CN)CC(=O)O` [pregabalin], the “Patients with dizziness and somnolence” value (patients; patients treated at the higher doses) is listed as “up to 30%”.

Reference: patent publication US20120196933A1, “MEXILETINE PRODRUGS” (priority 2010, published 2012)
